Data published in patent US10470991B2, “(R)-N-(adamantyl-2-yl)pyrrolidine-2-carboxamide derivatives for cosmetic use” (DSM IP ASSETS B.V., priority 2015, dated 2019).
Counter-ions that a name gives are not always drawn.

How the values were obtained:
11β-HSD1 [1] = target: T1, 11β-HSD1 (Homo sapiens, UniProt P28845); assay: Inhibition of 11-beta-hydroxysteroid dehydrogenase type 1, activity assay in cell lysates (HEK-293 HHH7 clone, radiolabeled cortisone, TLC); assay type: biochemical; design: expressed in transfected cells; host or cells: HEK-293 (HHH7 clone), used as cell lysate; conditions: inhibitor 300 nM, 10 min 37° C.
T1 sequence (P28845 whole entry): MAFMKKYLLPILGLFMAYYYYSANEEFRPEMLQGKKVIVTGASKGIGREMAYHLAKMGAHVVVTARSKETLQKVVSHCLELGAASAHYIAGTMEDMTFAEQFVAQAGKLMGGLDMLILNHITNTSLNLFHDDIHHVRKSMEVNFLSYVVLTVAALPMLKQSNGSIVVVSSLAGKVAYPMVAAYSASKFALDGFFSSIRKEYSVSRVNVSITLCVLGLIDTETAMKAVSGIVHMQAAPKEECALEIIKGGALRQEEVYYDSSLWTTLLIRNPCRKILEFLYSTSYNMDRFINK
Procedure: The cells were then washed with phosphate-buffered saline, and centrifuged for 4 min at 150×g. After removal of the supernatants, cell pellets were snap frozen on dry ice and stored at −80° C. until further use.
Cell lysates were incubated for 10 min at 37° C. in TS2 buffer (100 mM NaCl, 1 mM EGTA, 1 mM EDTA, 1 mM MgCl2, 250 mM sucrose, 20 mM Tris-HCl, pH 7.4) in a final volume of 22.2 μL containing either solvent (0.1% DMSO) or the inhibitor at the respective concentration as indicated in table 3-1.
Reactions were stopped after 10 min by adding an excess of unlabeled cortisone and cortisol (1:1, 2 mM, in methanol). The steroids were separated by TLC, using methanol-chloroform (1:9) as solvent, followed by scintillation counting and calculation of substrate concentration.

11β-HSD1 [2] = target: T1, 11β-HSD1; assay: Human keratinocytes assay: 11β-HSD1 activity (cortisol level in supernatant after cortisone treatment); assay type: cell-based; design: Primary human skin keratinocytes obtained from CellNTec advanced Cell Systems; host or cells: primary human skin keratinocytes; conditions: 1000 nM cortisone, 48 h, primary human keratinocytes
Procedure: Cell Culture: Primary human skin keratinocytes obtained from CellNTec advanced Cell Systems were maintained in CnT-PR medium at 37° C. in a humidified 5% CO2-air atmosphere. Cells were subcultured before reaching confluence.
Assessment of 11β-HSD1 Activity: Human primary keratinocytes were pre-cultured in complete culture media (CnT-PR, CellNTec) to 90% of confluence. Subsequently cells were washed twice with PBS-buffer to remove remaining corticosteroids and media were exchanged to custom made hydrocortisone-free media. 48 h later cell culture supernatant was collected and cortisol levels were assessed with the Cortisol Parameter Assay Kit (R&D Systems) following the instructions of the protocol and using a Multiskan Ascent plate reader (Labsystems).
Calculation: % remaining 11β-HSD1 activity=(cortisol-level with inhibitor/cortisol-level without inhibitor)*100%

[3] = test system: Human skin from abdominal plastic surgery; assay: Total dermal collagen after cortisone and cortisone/inhibitor treatment (human skin samples in culture, Picrosirius Red staining); assay type: cell-based; conditions: for Dermal collagen (score, untreated sample set to 100%): topical daily
Procedure: Human skin from abdominal plastic surgery was used. The skin samples were cut in pieces of ˜8×3 mm (Ø×thickness) and cultured up to day 6 in an air-liquid interface in a perforated ring of stainless steel in contact with a culture medium (modified Williams'E medium), while renewing the culture medium on day 3. Six skin specimens were used for each test sample. Each test sample (4 μl) was applied topically on top of each piece after cleaning of the surface with a cotton pad, which was subsequently covered with a 6 Ø mm delivery membrane, this procedure was repeated daily. After 6 days skin sections were stained with Picrosirius Red histochemical staining, that dyes collagen fibers in purple-red. The papillary dermis was selected for the analysis. The different colors of the pictures were separated by using a deconvolution matrix. After deconvolution only pink-reddish images are used. Within these images the evaluation of dermal collagen was performed by estimating both color intensity and distribution with IMAGE J (NIH) analysis software. Two slides of each skin sample were processed by image acquisition and related analysis (i.e. 12 images for each treatment).

Structure (SMILES) | 11β-HSD1 Remaining activity [% of control] (11β-HSD1 [1]) | remaining 11β-HSD1 activity (11β-HSD1 [2]; 3.16 nM inhibitor) | remaining 11β-HSD1 activity (11β-HSD1 [2]; 10.00 nM inhibitor) | remaining 11β-HSD1 activity (11β-HSD1 [2]; 31.62 nM inhibitor) | remaining 11β-HSD1 activity (11β-HSD1 [2]; 100.00 nM inhibitor) | remaining 11β-HSD1 activity (11β-HSD1 [2]; 316.20 nM inhibitor) | remaining 11β-HSD1 activity (11β-HSD1 [2]; 1000.00 nM inhibitor) | other results
CC(=O)N[C@@H](Cc1ccc(F)cc1)C(=O)N1CCC[C@@H]1C(=O)NC1C2CC3CC(C2)CC1C3 (stereo partly drawn) [(I-h), (R)-1-((S)-2-acetamido-3-(4-fluorophenyl)propanoyl)-N-(adamantan-2-yl)-pyrrolidine-2-carboxamide] | 37 % of control | 100% | 106% | 89% | 78% | 52% | 25% | 
CCOc1ccc(C[C@H](N)C(=O)N2CCC[C@@H]2C(=O)NC2C3CC4CC(C3)CC2C4)cc1 (stereo partly drawn) [(I-k), (R)-N-(adamantan-2-yl)-1-((S)-2-amino-3-(4-ethoxyphenyl)propanoyl)pyrrolidine-2-carboxamide trifluoroacetate] | 41 % of control | 95% | 100% | 89% | 80% | 58% | 36% | 
CC(=O)N[C@@H](Cc1ccc(C#N)cc1)C(=O)N1CCC[C@@H]1C(=O)NC1C2CC3CC(C2)CC1C3 (stereo partly drawn) [(I-l), (R)-1-((S)-2-acetamido-3-(4-cyanophenyl)-propanoyl)-N-(adamantan-2-yl)pyrrolidine-2-carboxamide] | 24 % of control | 94% | 92% | 76% | 57% | 28% | 12% | Increase versus cortisone (#2) ([3]; 10 μM in DMSO, day 6): +4%; Dermal collagen (score, untreated sample set to 100%) ([3]; 10 μM in DMSO, day 6, cortisone/inhibitor treatment): 80%; Increase versus cortisone (#2) ([3]; 100 μM in DMSO, day 6): +17%; Dermal collagen (score, untreated sample set to 100%) ([3]; 100 μM in DMSO, day 6, cortisone/inhibitor treatment): 90%; Increase versus cortisone (#2) ([3]; 200 μM in DMSO, day 6): +24%; Dermal collagen (score, untreated sample set to 100%) ([3]; 200 μM in DMSO, day 6, cortisone/inhibitor treatment): 96%
C[C@H](N)C(=O)NCC(=O)NCCN1CCC[C@@H]1C(=O)NC1C2CC3CC(C2)CC1C3 (stereo partly drawn) [(I-o), (R)-N-(adamantan-2-yl)-1-(2-(2-((S)-2-aminopropanamido)acetamido)ethyl)pyrrolidine-2-carboxamide bistrifluoroacetate] | 43 % of control |  |  |  |  |  |  | 
C[C@H](NC(=O)CN)C(=O)NCCN1CCC[C@@H]1C(=O)NC1C2CC3CC(C2)CC1C3 (stereo partly drawn) [(I-p), (R)-N-(adamantan-2-yl)-1-(2-((S)-2-(2-aminoacetamido)propanamido)ethyl)pyrrolidine-2-carboxamide bistrifluoroacetate] | 57 % of control |  |  |  |  |  |  | 
NCC(=O)N[C@@H](Cc1c[nH]c2ccccc12)C(=O)N1CCC[C@@H]1C(=O)NC1C2CC3CC(C2)CC1C3 (stereo partly drawn) [(I-q), (R)-N-(adamantan-2-yl)-1-(glycyl-L-tryptophyl)pyrrolidine-2-carboxamide trifluoroacetate] | 69 % of control |  |  |  |  |  |  | 
C[C@]12CCC(=O)C=C1CC[C@@H]1[C@@H]2C(=O)C[C@@]2(C)[C@H]1CC[C@]2(O)C(=O)CO [cortisone, reference compound] |  |  |  |  |  |  |  | Dermal collagen (score, untreated sample set to 100%) ([3]; cortisone 0.1 μM in DMSO alone, day 6, positive control for collagen inhibition): 77%
